Experimental data reported in ChEMBL document CHEMBL3507680, “University of Dundee, Gates Library screen for HepG2 cell viability”.

experiment: Human HepG2 cell viability assay in 384 well format; assay type: toxicity, cell-based; set-up: dose 125 nL, time 70.5 hour; cytotoxicity at 70.5 h: concentration not given beside the values; details: HepG2 cells, read-out: Inhibition

SMILES	cytotoxicity at 70.5 h
COc1ccc(CN(C)Cc2ccnc(C3CCCO3)n2)cc1 (stereo not given)	-2.06%
CN(C)Cc1cnc2n1CCN(C(=O)C1CC=CC1)CC2	-12.7%
CCCc1cc(C(=O)N(CC)Cc2ccncc2)[nH]n1	-7.59%
COCC(C)NC(=O)c1nnn(-c2ccc(F)cc2)n1 (stereo not given)	-5.45%
Cc1cc(C[C@@H]2COC[C@@H]2NC(=O)CCN2Cc3ccccc3C2)on1	11.4%
Cc1cc(C(=O)N2CCN(c3nc4c(C)cccc4s3)CC2)no1	9.18%
COCC(O)CN(C)C(=O)c1cccc(-c2csc(C)n2)c1 (stereo not given)	1.21%
COCC(=O)N1CCn2c(Cn3cncn3)cnc2C1C (stereo not given)	-6.96%
Cc1cc(CN2CCc3nn(C)c(=O)cc3C2)on1	3.7%
O=C(NCCC1=CCCCC1)c1[nH]nc2c1CCCC2	11.2%
CCO[C@H]1CCN(S(=O)(=O)c2cn(C)cn2)[C@H]1Cc1ccccc1	-1.16%
NC(=O)C1CCN(C(=O)Cn2ccc3cc(Br)ccc32)CC1	-9.96%
O=S(=O)(N1CCOCC1)N1CCCC1Cn1cccn1 (stereo not given)	-11.1%
Cc1cc(C(=O)N2CCCC2CN2CCCC2)no1 (stereo not given)	12.9%
NC(=O)c1cncc(Oc2cccc(CN3CCCC3)c2Cl)n1	-4.84%
Cc1noc([C@H]2COC[C@H]3CN(C(=O)Cc4cccs4)C[C@H]32)n1	-12.6%
CCc1cnc(CN(C)C2CCN(CC(=O)Nc3cc(C)on3)C2)o1 (stereo not given)	11.1%
COc1ccccc1OC1(C(=O)O)CCN(c2nc(C)cnc2C)CC1	-6.64%
O=S1(=O)CCC(S(=O)(=O)c2cccc(S(=O)(=O)N3CCOCC3)c2)C1 (stereo not given)	-8.35%
COc1ccc(N2CCN(C(=O)CCn3nccc3C)CC2(C)C)cc1	1.97%
COc1ccc(CN2CCC3(CC2)CCN(CC(=O)N(C)C)C3=O)cc1	-16.7%
CC(C)(NCC(=O)N1CCCC(C(N)=O)C1)c1ccc(Cl)cc1 (stereo not given)	-3.83%
CNc1cc(C2CCCN2C(=O)CCc2ccccc2F)ccn1 (stereo not given)	-2.87%

SMILES	cytotoxicity at 70.5 h
COCCNC(=O)Nc1cccc(COCCOC(C)C)c1	-6.5%
O=C1CCCN1Cc1ncn2c1CN(C(=O)c1cccc(F)c1)CCC2	-13.4%
CCN(CC(=O)NC(C)C)C(=O)C(C)(C)c1ccc2c(c1)OCCO2	-8.1%
CC(=O)N1CCCC2(CN(Cc3ccccc3C(F)(F)F)CCO2)C1 (stereo not given)	-2.98%
Cn1ncnc1NCc1ccc(Cl)cc1	-9.65%
COCCC(=O)N1CCCC(c2nc(O)cc(-c3ccncc3)n2)C1 (stereo not given)	18%
CCOCc1cnc2n1CCN(C(=O)c1cn(C)c3ccccc13)C2C (stereo not given)	8.97%
COc1nc2c(cc1C(=O)NCCc1nc3c(s1)CCC3)CCC2	3.25%
CN(C)c1ccc(NC(=O)NCc2ccc(Cl)s2)cn1	-7.08%
Cn1cc(CCN2CCOC(CNc3cccnn3)C2)cn1 (stereo not given)	21.9%
c1cncc(-c2nnn3c2COCC(CNC2CCOCC2)C3)c1 (stereo not given)	12.3%
Cc1cnc(C(=O)N2CC[C@H]3C[C@@H](c4nc(C)cs4)O[C@@H]3C2)cn1	7.61%
CNc1nc(CNC(=O)Nc2ccc(SC)c(F)c2)cs1	-1.49%
Cc1ccnc(OC[C@]23COC[C@H]2CN(C(=O)c2ccnn2C)C3)n1	-8.86%
COc1ccc(CN2CC(O)CN(C(=O)c3ccccc3)CC2=O)cc1 (stereo not given)	7.16%
CSc1ncc(C(=O)N2CCN(c3ccccc3C)CC2C)cn1 (stereo not given)	-2.82%
Cc1nc(CN2CCC3(C2)CN(Cc2ccco2)C3)cs1	-3.68%
Cc1nn(C)c(C)c1-c1ccc(=O)n(C(C)C(=O)NCc2ccco2)n1 (stereo not given)	-7.42%
Cc1cc(C)nc(Nc2ccc(C3CCCCN3)cn2)n1 (stereo not given)	18.8%
CC(=O)N1CCCC2(CCN(Cc3ccc(Cl)c(F)c3)C2)C1 (stereo not given)	-3.79%
Cc1nc(C)c(C(=O)N2CCCC2c2nc(O)cc(C(C)C)n2)s1 (stereo not given)	-6.05%
CC(C)c1noc(CN(Cc2ccccc2F)C2CC2)n1	-12%
